From PubChem BioAssay (NCI)
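Cultured in 96-well plates, cells were exposed to test compound for 48 hours across five concentrations. TGI: concentration producing complete growth inhibition.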

What was measured:
Assay in all cases: NCI tumour cell line growth inhibition, 48 h
OVCAR-5 ovarian = test system: OVCAR-5 ovarian
COLO 205 colon = test system: COLO 205 colon
SF-268 CNS = test system: SF-268 CNS
RXF 393 renal = test system: RXF 393 renal
HCT-15 colon = test system: HCT-15 colon
CCRF-CEM leukemia = test system: CCRF-CEM leukemia
A549 NSCLC = test system: A549 NSCLC
K-562 leukemia = test system: K-562 leukemia
OVCAR-3 ovarian = test system: OVCAR-3 ovarian
SF-539 CNS = test system: SF-539 CNS
A498 renal = test system: A498 renal
IGROV1 ovarian = test system: IGROV1 ovarian
SNB-75 CNS = test system: SNB-75 CNS
NCI-H460 lung = test system: NCI-H460 lung
KM12 colon = test system: KM12 colon
SR leukemia = test system: SR leukemia
BT-549 breast = test system: BT-549 breast
T-47D breast = test system: T-47D breast
MDA-MB-231 breast = test system: MDA-MB-231 breast
HS 578T breast = test system: HS 578T breast

| Compound | TGI (OVCAR-5 ovarian) [µM] | TGI (COLO 205 colon) [µM] | TGI (SF-268 CNS) [µM] | TGI (RXF 393 renal) [µM] | TGI (HCT-15 colon) [µM] | TGI (CCRF-CEM leukemia) [µM] | TGI (A549 NSCLC) [µM] | TGI (K-562 leukemia) [µM] | TGI (OVCAR-3 ovarian) [µM] | TGI (SF-539 CNS) [µM] | TGI (A498 renal) [µM] | TGI (IGROV1 ovarian) [µM] | TGI (SNB-75 CNS) [µM] | TGI (NCI-H460 lung) [µM] | TGI (KM12 colon) [µM] | TGI (SR leukemia) [µM] | TGI (BT-549 breast) [µM] | TGI (T-47D breast) [µM] | TGI (MDA-MB-231 breast) [µM] | TGI (HS 578T breast) [µM] |
| --- | --- | --- | --- | --- | --- | --- | --- | --- | --- | --- | --- | --- | --- | --- | --- | --- | --- | --- | --- | --- |
| CCOc1ccccc1NC(=O)CSc1nnc(Cc2ccccc2)o1 | > 100 | 36.5 | 64.4 | 55.3 | 35.1 | > 100 | > 100 | > 100 | 32.7 | 53.5 | > 100 | > 100 | > 100 | 44.8 | > 100 | – | – | – | – | – |
| COc1ccc2c(c1)OCC1=C2Oc2ccccc2C1 | 88.8 | 49.2 | > 100 | – | > 100 | – | > 100 | > 100 | > 100 | 95.7 | > 100 | > 100 | 42.5 | – | > 100 | > 100 | 71.5 | > 100 | > 100 | – |
| O=C(O)COc1cc(-c2ccccc2F)nc2cc3c(cc12)OCO3 | > 100 | > 100 | > 100 | > 100 | > 100 | > 100 | > 100 | > 100 | > 100 | > 100 | – | > 100 | > 100 | – | > 100 | > 100 | > 100 | > 100 | > 100 | – |
| O=S(Nc1ccccc1)c1ccccc1Oc1ccccc1 (stereo unspecified) | > 100 | > 100 | 62 | > 100 | > 100 | > 100 | > 100 | > 100 | > 100 | 35.6 | – | 12.6 | > 100 | > 100 | > 100 | > 100 | – | – | > 100 | 19.6 |
| COc1ccc2c(c1)CC[C@@H]1C2CC[C@]2(C)C(=N\O)/C(=N/O)CC12 (stereo partly specified) | 25.8 | 31.6 | 37.8 | – | 26.2 | 29.9 | 24.7 | 36 | 26.8 | 35.1 | 34.2 | 10 | – | 12.5 | 42.7 | – | – | – | – | – |
| Nc1cc(N2CCOCC2)nc(=O)n1-c1ccccc1 | > 100 | > 100 | – | – | > 100 | > 100 | > 100 | > 100 | > 100 | > 100 | > 100 | > 100 | > 100 | > 100 | > 100 | > 100 | > 100 | > 100 | – | – |
| CC(=O)Oc1c(C)cc2c(c1C)C(C)(C)CN2C(=O)C(C)(C)C | > 100 | > 100 | > 100 | > 100 | > 100 | > 100 | > 100 | > 100 | > 100 | > 100 | > 100 | > 100 | 31 | > 100 | > 100 | – | – | 96.2 | > 100 | > 100 |
| CC1(OCc2ccccc2)C(=O)N2C1N(C(=O)OCc1ccccc1)CC2(C)C (stereo unspecified) | – | > 100 | > 100 | > 100 | > 100 | > 100 | > 100 | > 100 | > 100 | > 100 | > 100 | > 100 | > 100 | > 100 | – | 95 | – | – | – | – |
| Cc1ccc([N+]2=NC(c3ccc([N+](=O)[O-])cc3)=NN(c3ccccc3)C2)cc1 | > 100 | > 100 | > 100 | > 100 | > 100 | > 100 | > 100 | > 100 | > 100 | – | > 100 | > 100 | – | > 100 | – | > 100 | – | – | – | – |
| [N-]=[N+]=CC(=O)OC1CCc2ccccc21 (stereo unspecified) | > 100 | > 100 | > 100 | > 100 | > 100 | – | – | > 100 | > 100 | – | > 100 | > 100 | – | > 100 | – | > 100 | > 100 | – | > 100 | – |
| COc1cccc([C@@H]2C/C(=N\NC(=O)C(=O)N[C@@H](C)c3ccccc3)c3cc4c(cc3N2)OCO4)c1 | > 100 | 68.8 | > 100 | > 100 | > 100 | > 100 | > 100 | > 100 | > 100 | > 100 | > 100 | – | > 100 | – | > 100 | – | – | > 100 | > 100 | > 100 |
| CCOc1cc(/C=N\O)cc(/C=N/O)c1O | > 100 | 50.1 | 64.1 | 30.5 | 92.6 | > 100 | > 100 | > 100 | > 100 | 61.1 | 51.1 | – | 57.6 | > 100 | > 100 | > 100 | – | 93.8 | > 100 | > 100 |
| ClCCN(CC#CCCCC#CCN(CCCl)CCCl)CCCl | 26 | 30.3 | 33.5 | 33.5 | 27.2 | 10.6 | 31.8 | 37.7 | 26.7 | 27 | 26.4 | 35.1 | 36.4 | 16.3 | 44.4 | 7.66 | – | – | – | – |
| CCOP(=O)(OCC)c1cc2cc(O)ccc2oc1=O | > 100 | > 100 | > 100 | > 100 | > 100 | > 100 | > 100 | > 100 | > 100 | > 100 | > 100 | > 100 | > 100 | > 100 | > 100 | > 100 | – | > 100 | > 100 | > 100 |
